Experimental data: patent US7348425B2, “Inhibitors of HCV replication” (Bristol-Myers Squibb Company, priority 2004, dated 2008)

The compounds below were run on HCV replicon (assay: HCV replicon FRET assay). Details: Hepatitis C virus; FRET assay; read-out: EC50.
Type: cell-based
Method: The IC50 values for compounds were determined using seven different [I]. IC50 values were calculated from the inhibition using the formula y=A+((B−A)/(1+((C/x)^D))). FRET Assay Preparation. To perform the HCV FRET screening assay, 96-well cell culture plates were used. The FRET peptide (Anaspec, Inc.) (Taliani et al., Anal. Biochem. 240:60-67 (1996), hereby incorporated by reference in its entirety) contains a fluorescence donor, EDANS, near one end of the peptide and an acceptor, DABCYL, near the other end. The fluorescence of the peptide is quenched by […] resonance energy transfer (RET) between the donor and the acceptor, but as the NS3 protease cleaves the peptide the products are released from RET quenching and the fluorescence of the donor becomes apparent. The assay reagent was made as follows: 5× cell Luciferase cell culture lysis reagent from Promega (#E153A) diluted to 1× with dH2O, NaCl added to 150 mM final, the FRET peptide diluted to 20 uM final from a 2 mM stock.
To prepare plates, HCV replicon cells, with or without a Renilla luciferase reporter gene, were trypsinized and placed into each well of a 96-well plate with titrated test compounds added in columns 3 through 12; columns 1 and 2 contained a control compound (HCV protease inhibitor), and the bottom row contained cells without compound. The plates were then placed in a CO2 incubator at 37 degrees C.
Assays. Subsequent to addition of the test compounds described above (FRET Assay Preparation), at various times the plate was removed and Alamar blue solution (Trek Diagnostics, #00-100) was added per well as a measure of cellular toxicity. After reading in a Cytoflour 4000 instrument (PE Biosystems), plates were rinsed with PBS and then used for FRET assay by the addition of 30 ul of the FRET peptide assay reagent described above (FRET Assay Preparation) per well. The plate was then placed into the Cytoflour 4000 instrument which had been set to 340 excite/490 emission, automatic mode for 20 cycles and the plate read in a kinetic mode. Typically, the signal to noise using an endpoint analysis after the reads was at least three-fold. Alternatively, after Alamar blue reading, plates were rinsed with PBS, 50 ul of DMEM (high glucose) without phenol red was added and plates were then used for luciferase assay using the Promega Dual-Glo Luciferase Assay System.
Compound analysis was determined by quantification of the relative HCV replicon inhibition and the relative cytotoxicity values. To calculate cytoxicity values, the average Alamar Blue fluorescence signals from the control wells were set as 100% non-toxic. The individual signals in each of the compound test wells were then divided by the average control signal and multiplied by 100% to determine […]. To calculate the HCV replicon inhibition values, an average background value was obtained from the two wells containing the highest amount of HCV protease inhibitor at the end of the assay period. These numbers were similar to those obtained from naïve Huh-7 cells.
The background numbers were then subtracted from the average signal obtained from the control wells and this number was used as 100% activity. The individual signals in each of the compound test wells were then divided by the averaged control values after background subtraction and multiplied by 100% to determine percent activity. EC50 values for a protease inhibitor titration were calculated as the concentration which caused a 50% reduction in FRET or luciferase activity. The two numbers generated for the compound plate, percent cytoxicity and percent activity were used to determine compounds of interest for further analysis.

Question: Which EC50 does the source give for `COC(=O)c1ccc2c(C3CCCCC3)c3n(c2c1)CC(=O)N(CCN(C)C)c1ccccc1-3` here?
Answer: Its EC50 is 1000 to 10000 nM.

Question: Which EC50 does the source give for `Cc1nc2c(s1)CCCn1c-2c(C2CCCCC2)c2ccc(C(=O)O)cc21` here?
Answer: Its EC50 is > 10000 nM.

Question: `CCOC(=O)c1cc2cc(NC(=O)C3(NC(=O)c4ccc5c(C6CCCCC6)c6n(c5c4)CC(=O)Nc4ccccc4-6)CCCC3)ccc2n1C` was tested. Which EC50 did it give?
Answer: The EC50 was 10 to 1000 nM.

Question: `CN(C)C(=O)NC(=O)c1ccc2c(C3CCCCC3)c3n(c2c1)CC(C(=O)N1CCOCC1)=Cc1ccccc1-3` was tested. Which EC50 did it give?
Answer: Its EC50 is 1000 to 10000 nM.

Question: Which EC50 does the source give for `O=C(O)/C=C/c1ccc(NC(=O)C2(NC(=O)c3ccc4c(C5CCCCC5)c5n(c4c3)CCCc3nccnc3-5)CCCC2)cc1` here?
Answer: Its EC50 is < 100 nM.

Question: For `O=C(O)c1ccc2c(c1)C1CCN(C(=O)N3CCOCC3)c3ccccc3C1=C2C1CCCCC1` (centres unmarked), which EC50 is on record?
Answer: The EC50 was 1000 to 10000 nM.

Question: `COC(=O)c1ccc2c(C3CCCCC3)c3n(c2c1)CC(C#N)=Cc1ccccc1-3` was tested. Which EC50 did it give?
Answer: The EC50 was 1000 to 10000 nM.

Question: Which EC50 does the source give for `COC(=O)c1ccc2c(C3CCCCC3)c3n(c2c1)CC(C(=O)N1CCOCC1)Cc1ccncc1-3` (centres unmarked) here?
Answer: The EC50 was 10 to 1000 nM.

Question: Which EC50 does the source give for `CC(C)S(=O)(=O)NC(=O)c1ccc2c(C3CCCCC3)c3n(c2c1)CC(C(=O)N1CCOCC1)=Cc1ccccc1-3` here?
Answer: Its EC50 is 10 to 1000 nM.

Question: For `CC(C)N(C)C(=O)C1=Cc2ccccc2-c2c(C3CCCCC3)c3ccc(C(=O)NS(=O)(=O)N(C)C)cc3n2C1`, which EC50 is on record?
Answer: The EC50 was 10 to 1000 nM.

Question: Which EC50 does the source give for `CN(C)S(=O)(=O)NC(=O)c1ccc2c(C3CCCCC3)c3n(c2c1)CC(=O)Nc1ccccc1-3` here?
Answer: The EC50 was 10 to 1000 nM.

Question: For `COC(=O)c1ccc2c(C3CCCCC3)c3n(c2c1)C(C(=O)N1CCOCC1)CCc1ccccc1-3` (centres unmarked), which EC50 is on record?
Answer: Its EC50 is 50 to 1000 nM.

Question: How did the EC50 turn out when `CC(C)N(C(=O)C1=Cc2ccccc2-c2c(C3CCCCC3)c3ccc(C(=O)NS(=O)(=O)N(C)C)cc3n2C1)C(C)C` was run?
Answer: Its EC50 is 10 to 1000 nM.

Question: How did the EC50 turn out when `CCS(=O)(=O)NC(=O)c1ccc2c(C3CCCCC3)c3n(c2c1)CC(C(=O)N1CCOCC1)=Cc1ccccc1-3` was run?
Answer: Its EC50 is 10 to 1000 nM.

Question: Which EC50 does the source give for `COc1ccc2c(c1)C(=O)n1c-2c(C2CCCCC2)c2ccc(C(=O)NS(=O)(=O)N(C)C)cc21` here?
Answer: Its EC50 is 1000 to 10000 nM.

Question: How did the EC50 turn out when `O=C1Cn2c(c(C3CCCCC3)c3ccc(C(=O)NS(=O)(=O)N4CCCC4)cc32)-c2ccccc2N1` was run?
Answer: Its EC50 is 10 to 1000 nM.

Each compound was assayed against T1, HCV NS5B RdRp genotype 1b (Hepatitis C virus genotype 1b, UniProt Q9WMX2) (assay: Modified HCV NS5B RdRp enzyme assay (with preincubation)). Details: modified method (with preincubation).
T1 construct: The protein was expressed with an 18 amino acid C-terminal truncation to enhance the solubility; made in house; host or cells: E. coli BL21 (DE3), pET21a
Type: biochemical
Method: HCVNS5B RdRp cloning, expression, and purification. The cDNA encoding the NS5B protein of HCV, genotype 1b, was cloned into the pET21a expression vector. The protein was expressed with an 18 amino acid C-terminal truncation to enhance the solubility. The E. coli competent cell line BL21 (DE3) was used for expression of the protein. Cultures were grown at 37° C. for ˜4 hours until the cultures reached an optical density of 2.0 at 600 nm. The cultures were cooled to 20° C. and induced with 1 mM IPTG. Fresh ampicillin was added to a final concentration of 50 μg/ml and the cells were grown overnight at 20° C.
Cell pellets (3 L) were lysed for purification to yield 15-24 mgs of purified NS5B. The lysis buffer consisted of 20 mM Tris-HCl, pH 7.4, 500 mM NaCl, 0.5% triton X-100, 1 mM DTT, 1 mM EDTA, 20% glycerol, 0.5 mg/ml lysozyme, 10 mM MgCl2, 15 ug/ml deoxyribonuclease I, and Complete TM protease inhibitor tablets (Roche). After addition of the lysis buffer, frozen cell pellets were resuspended using a tissue homogenizer. To reduce the viscosity of the sample, aliquots of the lysate were sonicated on ice using a microtip attached to a Branson sonicator. The sonicated lysate was centrifuged at 100,000×g for 1 hr at 4° C. and filtered through a 0.2 μm filter unit (Corning).
The protein was purified using three sequential chromatography steps: Heparin sepharose CL-6B, polyU sepharose 4B, and Hitrap SP sepharose (Pharmacia). The chromatography buffers were identical to the lysis buffer but contained no lysozyme, deoxyribonuclease I, MgCl2 or protease inhibitor and the NaCl concentration of the buffer was adjusted according to the requirements for charging the protein onto the column. Each column was eluted with a NaCl gradient which varied in length from 5-50 column volumes depending on the column type. After the final chromatography step, the resulting purity of the enzyme is >90% based on SDS-PAGE analysis. The enzyme was aliquoted and stored at −80° C.
Standard HCV NS5B RdRp enzyme assay. HCV RdRp genotype Ib assays were run in a final volume of 60 μl in 96 well plates (Costar 3912). The assay buffer is composed of 20 mM Hepes, pH 7.5, 2.5 mM KCl, 2.5 mM MgCl2, 1 mM DTT, 1.6 U RNAse inhibitor (Promega N2515), 0.1 mg/ml BSA (Promega R3961), and 2% glycerol. All compounds were serially diluted (3-fold) in DMSO and diluted further in water such that the final concentration of DMSO in the assay was 2%. HCV RdRp genotype 1b enzyme was used at a final concentration of 28 nM. A polyA template was used at 6 nM, and a biotinylated oligo-dT12 primer was used at 180 nM final concentration. Template was obtained commercially (Amersham 27-4110). Biotinylated primer was prepared by Sigma Genosys. ^3H-UTP was used at 0.6 μCi (0.29 μM total UTP). Reactions were initiated by the addition of enzyme, incubated at 30° C. for 60 min, and stopped by adding 25 μl of 50 mM EDTA containing SPA beads (4 μg/μl, Amersham RPNQ 0007). Plates were read on a Packard Top Count NXT after >1 hr incubation at room temperature.
Modified HCV NS5B RdRp enzyme assay. A modified enzyme assay was performed essentially as described for the standard enzyme assay except for the following: The biotinylated oligo dT12 primer was precaptured on streptavidin-coated SPA beads by mixing primer and beads in assay buffer and incubating at room temperature for one hour. Unbound primer was removed after centrifugation. The primer-bound beads were resuspended in 20 mM Hepes buffer, pH 7.5 and used in the assay at final concentrations of 20 nM primer and 0.67 μg/μl beads. Order of addition in the assay: enzyme (14 nM) was added to diluted compound followed by the addition of a mixture of template (0.2 nM), ^3H-UTP (0.6 μCi, 0.29 μM), and primer-bound beads, to initiate the reaction; concentrations given are final. Reactions were allowed to proceed for 4 hours at 30° C.
The IC50 values for compounds were determined using seven different [I]. […]

T1 sequence (Q9WMX2 2420-2992): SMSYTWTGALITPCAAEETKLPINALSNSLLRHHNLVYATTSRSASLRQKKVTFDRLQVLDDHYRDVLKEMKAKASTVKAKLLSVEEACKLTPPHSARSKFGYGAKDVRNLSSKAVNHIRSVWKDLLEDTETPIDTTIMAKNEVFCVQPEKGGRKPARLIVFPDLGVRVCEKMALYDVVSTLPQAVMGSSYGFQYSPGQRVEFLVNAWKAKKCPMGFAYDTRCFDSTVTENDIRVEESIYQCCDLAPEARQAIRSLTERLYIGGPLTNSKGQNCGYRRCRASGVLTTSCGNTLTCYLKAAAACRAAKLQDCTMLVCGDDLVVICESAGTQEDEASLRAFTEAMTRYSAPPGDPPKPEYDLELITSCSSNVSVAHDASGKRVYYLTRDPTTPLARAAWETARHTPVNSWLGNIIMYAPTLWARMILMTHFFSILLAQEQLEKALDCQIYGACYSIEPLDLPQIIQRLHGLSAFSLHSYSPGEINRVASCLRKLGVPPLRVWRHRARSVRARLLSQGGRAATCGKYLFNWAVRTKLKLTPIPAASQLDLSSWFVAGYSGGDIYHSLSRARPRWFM

Question: With `COC(=O)c1ccc2c(C3CCCCC3)c3n(c2c1)CC(=O)N(CCN(C)C)c1ccccc1-3` as the compound, how does the IC50 read?
Answer: The IC50 was > 1000 nM.

Question: `Cc1nc2c(s1)CCCn1c-2c(C2CCCCC2)c2ccc(C(=O)O)cc21` was tested. Which IC50 did it give?
Answer: Its IC50 is > 1000 nM.

Question: With `CCOC(=O)c1cc2cc(NC(=O)C3(NC(=O)c4ccc5c(C6CCCCC6)c6n(c5c4)CC(=O)Nc4ccccc4-6)CCCC3)ccc2n1C` as the compound, how does the IC50 read?
Answer: The IC50 was 20 to 1000 nM.

Question: With `CN(C)C(=O)NC(=O)c1ccc2c(C3CCCCC3)c3n(c2c1)CC(C(=O)N1CCOCC1)=Cc1ccccc1-3` as the compound, how does the IC50 read?
Answer: Its IC50 is 20 to 1000 nM.

Question: With `O=C(O)/C=C/c1ccc(NC(=O)C2(NC(=O)c3ccc4c(C5CCCCC5)c5n(c4c3)CCCc3nccnc3-5)CCCC2)cc1` as the compound, how does the IC50 read?
Answer: The IC50 was 20 to 1000 nM.

Question: For `O=C(O)c1ccc2c(c1)C1CCN(C(=O)N3CCOCC3)c3ccccc3C1=C2C1CCCCC1` (centres unmarked), which IC50 is on record?
Answer: The IC50 was > 1000 nM.

Question: With `COC(=O)c1ccc2c(C3CCCCC3)c3n(c2c1)CC(C#N)=Cc1ccccc1-3` as the compound, how does the IC50 read?
Answer: The IC50 was > 1000 nM.

Question: For `COC(=O)c1ccc2c(C3CCCCC3)c3n(c2c1)CC(C(=O)N1CCOCC1)Cc1ccncc1-3` (centres unmarked), which IC50 is on record?
Answer: Its IC50 is > 1000 nM.

Question: For `CC(C)S(=O)(=O)NC(=O)c1ccc2c(C3CCCCC3)c3n(c2c1)CC(C(=O)N1CCOCC1)=Cc1ccccc1-3`, which IC50 is on record?
Answer: The IC50 was 20 to 1000 nM.

Question: How did the IC50 turn out when `CC(C)N(C)C(=O)C1=Cc2ccccc2-c2c(C3CCCCC3)c3ccc(C(=O)NS(=O)(=O)N(C)C)cc3n2C1` was run?
Answer: The IC50 was 20 to 1000 nM.

Question: For `CN(C)S(=O)(=O)NC(=O)c1ccc2c(C3CCCCC3)c3n(c2c1)CC(=O)Nc1ccccc1-3`, which IC50 is on record?
Answer: The IC50 was 20 to 1000 nM.

Question: Which IC50 does the source give for `CC(C)N(C(=O)C1=Cc2ccccc2-c2c(C3CCCCC3)c3ccc(C(=O)NS(=O)(=O)N(C)C)cc3n2C1)C(C)C` here?
Answer: Its IC50 is 20 to 1000 nM.

Question: Which IC50 does the source give for `CCS(=O)(=O)NC(=O)c1ccc2c(C3CCCCC3)c3n(c2c1)CC(C(=O)N1CCOCC1)=Cc1ccccc1-3` here?
Answer: Its IC50 is 20 to 1000 nM.

Question: Which IC50 does the source give for `O=C1Cn2c(c(C3CCCCC3)c3ccc(C(=O)NS(=O)(=O)N4CCCC4)cc32)-c2ccccc2N1` here?
Answer: Its IC50 is 20 to 1000 nM.

Same assay, conditions: preincubation protocol

Question: For `COC(=O)c1ccc2c(C3CCCCC3)c3n(c2c1)C(C(=O)N1CCOCC1)CCc1ccccc1-3` (centres unmarked), which IC50 is on record?
Answer: Its IC50 is > 12500 nM.

Question: With `COc1ccc2c(c1)C(=O)n1c-2c(C2CCCCC2)c2ccc(C(=O)NS(=O)(=O)N(C)C)cc21` as the compound, how does the IC50 read?
Answer: The IC50 was 10 to 1000 nM.
